Laboratory results as given in patent publication US7432397B2, “Imaging compounds” (Hammersmith Imanet Ltd., priority 2002, dated 2008).
Marks after values point to notes of the source that are not given here.

Assay: Biodistribution of radioactivity in rat tissues after intravenous injection
Assay type: in vivo
Settings: for Radioactivity in Cerebellum / Radioactivity in Entorhinal cortex / Radioactivity in Fat / Radioactivity in Heart (ventricle) / Radioactivity in Hippocampus / Radioactivity in Hypothalamus / Radioactivity in Inferior collicull / Radioactivity in Kidney / Radioactivity in Large intestine / Radioactivity in Lge. intestine content / Radioactivity in Liver / Radioactivity in Lung / Radioactivity in Medulla with Pons / Radioactivity in Olfactory bulbs / Radioactivity in Olfactory tubercles / Radioactivity in Prefrontal cortex / Radioactivity in Skeletal muscle / Radioactivity in Skin / Radioactivity in Sm. intestine content / Radioactivity in Small intestine / Radioactivity in Somatosensory cortex / Radioactivity in Spleen / Radioactivity in Stomach / Radioactivity in Striata / Radioactivity in Superior collicull / Radioactivity in Testis / Radioactivity in Thalamus / Radioactivity in Visual cortex / Radioactivity in Plasma / Radioactivity in Whole blood / Radioactivity in Urine: i.v.; for Radioactivity in Plasma / Radioactivity in Whole blood: composite curve of 9 rats
Description: Sixteen adult male Sprague-Dawley rats (body weight 250-320 g: mean±SD=288±25 g) were used in 5 separate experiments. Each rat was injected with ˜13 MBq Compound 1, at a specific activity of […], via a previously catheterised tail vein. The associated stable compound was 0.5±0.2 nmol/kg. Discrete samples of arterial blood were collected from 9 of the rats via a previously catheterised tail artery.
Tissues were sampled post-mortem using an established protocol, as described in Hirani et al, Synapse 42:164-176 (2001). The radioactivity concentration data obtained at 12 times up to 90 min after radioligand injection were normalised for both amount injected and body weight, giving:—‘uptake units’=(cpm/g tissue)/(injected cpm/g body weight).

## CSc1cccc(N([11CH3])C(=N)Nc2cc(SC)ccc2Cl)c1 [Compound 1, (N-(2-chloro-5-(methylthio)phenyl)-N′-(3-methylthio)phenyl)-N′-[N-methyl-^11C]-methylguanidine]
Following intravenous injection
  extraction of radioactivity into the brain: high extraction
1 min
  Radioactivity in Cerebellum: 2.21 Uptake Units
  Radioactivity in Entorhinal cortex: 1.92 Uptake Units
  Radioactivity in Fat: 0.15 Uptake Units
  Radioactivity in Heart (ventricle): 10.4 Uptake Units
  Radioactivity in Hippocampus: 1.61 Uptake Units
  Radioactivity in Hypothalamus: 2.31 Uptake Units
  Radioactivity in Inferior collicull: 3.42 Uptake Units
  Radioactivity in Kidney: 12.5 Uptake Units
  Radioactivity in Large intestine: 2.71 Uptake Units
  Radioactivity in Lge. intestine content: 0.11 Uptake Units
  Radioactivity in Liver: 2.48 Uptake Units
  Radioactivity in Lung: 56.4 Uptake Units
  Radioactivity in Medulla with Pons: 2.18 Uptake Units
  Radioactivity in Olfactory bulbs: 2.34 Uptake Units
  Radioactivity in Olfactory tubercles: 2.49 Uptake Units
  Radioactivity in Prefrontal cortex: 2.52 Uptake Units
  Radioactivity in Skeletal muscle: 1.07 Uptake Units
  Radioactivity in Skin: 0.47 Uptake Units
  Radioactivity in Sm. intestine content: 4.96 Uptake Units
  Radioactivity in Small intestine: 3.38 Uptake Units
  Radioactivity in Somatosensory cortex: 2.22 Uptake Units
  Radioactivity in Spleen: 3.04 Uptake Units
  Radioactivity in Stomach: 1.60 Uptake Units
  Radioactivity in Striata: 2.13 Uptake Units
  Radioactivity in Superior collicull: 2.42 Uptake Units
  Radioactivity in Testis: 0.50 Uptake Units
  Radioactivity in Thalamus: 2.59 Uptake Units
  Radioactivity in Visual cortex: 2.46 Uptake Units
  Radioactivity in Plasma: 0.51 Uptake Units
  Radioactivity in Whole blood: 0.59 Uptake Units
2 min
  Radioactivity in Cerebellum: 2.47 Uptake Units
  Radioactivity in Entorhinal cortex: 2.13 Uptake Units
  Radioactivity in Fat: 0.18 Uptake Units
  Radioactivity in Heart (ventricle): 8.20 Uptake Units
  Radioactivity in Hippocampus: 1.73 Uptake Units
  Radioactivity in Hypothalamus: 2.29 Uptake Units
  Radioactivity in Inferior collicull: 3.65 Uptake Units
  Radioactivity in Kidney: 10.8 Uptake Units
  Radioactivity in Large intestine: 3.11 Uptake Units
  Radioactivity in Lge. intestine content: 0.21 Uptake Units
  Radioactivity in Liver: 1.65 Uptake Units
  Radioactivity in Lung: 44.5 Uptake Units
  Radioactivity in Medulla with Pons: 2.35 Uptake Units
  Radioactivity in Olfactory bulbs: 2.50 Uptake Units
  Radioactivity in Olfactory tubercles: 2.56 Uptake Units
  Radioactivity in Prefrontal cortex: 2.73 Uptake Units
  Radioactivity in Skeletal muscle: 1.14 Uptake Units
  Radioactivity in Skin: 0.54 Uptake Units
  Radioactivity in Sm. intestine content: 5.62 Uptake Units
  Radioactivity in Small intestine: 3.87 Uptake Units
  Radioactivity in Somatosensory cortex: 2.56 Uptake Units
  Radioactivity in Spleen: 2.65 Uptake Units
  Radioactivity in Stomach: 1.49 Uptake Units
  Radioactivity in Striata: 2.33 Uptake Units
  Radioactivity in Superior collicull: 2.64 Uptake Units
  Radioactivity in Testis: 0.51 Uptake Units
  Radioactivity in Thalamus: 2.41 Uptake Units
  Radioactivity in Visual cortex: 2.71 Uptake Units
  Radioactivity in Plasma: 0.37 Uptake Units
  Radioactivity in Whole blood: 0.42 Uptake Units
5 min
  Radioactivity in Cerebellum: 2.43 Uptake Units
  Radioactivity in Entorhinal cortex: 2.16 Uptake Units
  Radioactivity in Fat: 0.23 Uptake Units
  Radioactivity in Heart (ventricle): 4.27 Uptake Units
  Radioactivity in Hippocampus: 2.00 Uptake Units
  Radioactivity in Hypothalamus: 2.28 Uptake Units
  Radioactivity in Inferior collicull: 3.23 Uptake Units
  Radioactivity in Kidney: 8.70 Uptake Units
  Radioactivity in Large intestine: 2.73 Uptake Units
  Radioactivity in Lge. intestine content: 0.13 Uptake Units
  Radioactivity in Liver: 2.95 Uptake Units
  Radioactivity in Lung: 38.7 Uptake Units
  Radioactivity in Medulla with Pons: 2.34 Uptake Units
  Radioactivity in Olfactory bulbs: 2.18 Uptake Units
  Radioactivity in Olfactory tubercles: 2.42 Uptake Units
  Radioactivity in Prefrontal cortex: 2.67 Uptake Units
  Radioactivity in Skeletal muscle: 1.32 Uptake Units
  Radioactivity in Skin: 0.61 Uptake Units
  Radioactivity in Sm. intestine content: 6.84 Uptake Units
  Radioactivity in Small intestine: 3.17 Uptake Units
  Radioactivity in Somatosensory cortex: 2.69 Uptake Units
  Radioactivity in Spleen: 3.85 Uptake Units
  Radioactivity in Stomach: 1.26 Uptake Units
  Radioactivity in Striata: 2.35 Uptake Units
  Radioactivity in Superior collicull: 2.59 Uptake Units
  Radioactivity in Testis: 0.56 Uptake Units
  Radioactivity in Thalamus: 2.59 Uptake Units
  Radioactivity in Urine: 11.7 Uptake Units
  Radioactivity in Visual cortex: 3.05 Uptake Units
  Radioactivity in Plasma: 0.24 Uptake Units
  Radioactivity in Whole blood: 0.26 Uptake Units
10 min
  Radioactivity in Cerebellum: 2.08 Uptake Units
  Radioactivity in Entorhinal cortex: 2.04 Uptake Units
  Radioactivity in Fat: 0.50 Uptake Units
  Radioactivity in Heart (ventricle): 2.20 Uptake Units
  Radioactivity in Hippocampus: 1.81 Uptake Units
  Radioactivity in Hypothalamus: 2.13 Uptake Units
  Radioactivity in Inferior collicull: 2.69 Uptake Units
  Radioactivity in Kidney: 5.72 Uptake Units
  Radioactivity in Large intestine: 1.92 Uptake Units
  Radioactivity in Lge. intestine content: 0.17 Uptake Units
  Radioactivity in Liver: 4.38 Uptake Units
  Radioactivity in Lung: 35.3 Uptake Units
  Radioactivity in Medulla with Pons: 2.26 Uptake Units
  Radioactivity in Olfactory bulbs: 1.91 Uptake Units
  Radioactivity in Olfactory tubercles: 2.14 Uptake Units
  Radioactivity in Prefrontal cortex: 2.52 Uptake Units
  Radioactivity in Skeletal muscle: 1.05 Uptake Units
  Radioactivity in Skin: 0.70 Uptake Units
  Radioactivity in Sm. intestine content: 5.31 Uptake Units
  Radioactivity in Small intestine: 2.49 Uptake Units
  Radioactivity in Somatosensory cortex: 2.49 Uptake Units
  Radioactivity in Spleen: 4.31 Uptake Units
  Radioactivity in Stomach: 0.82 Uptake Units
  Radioactivity in Striata: 2.17 Uptake Units
  Radioactivity in Superior collicull: 2.35 Uptake Units
  Radioactivity in Testis: 0.66 Uptake Units
  Radioactivity in Thalamus: 2.39 Uptake Units
  Radioactivity in Urine: 10.9 Uptake Units
  Radioactivity in Visual cortex: 2.80 Uptake Units
  Radioactivity in Plasma: 0.19 Uptake Units
  Radioactivity in Whole blood: 0.21 Uptake Units
15 min
  Radioactivity in Cerebellum: 1.81 Uptake Units
  Radioactivity in Entorhinal cortex: 1.93 Uptake Units
  Radioactivity in Fat: 0.75 Uptake Units
  Radioactivity in Heart (ventricle): 1.63 Uptake Units
  Radioactivity in Hippocampus: 1.74 Uptake Units
  Radioactivity in Hypothalamus: 1.85 Uptake Units
  Radioactivity in Inferior collicull: 2.22 Uptake Units
  Radioactivity in Kidney: 4.78 Uptake Units
  Radioactivity in Large intestine: 1.65 Uptake Units
  Radioactivity in Lge. intestine content: 0.03 Uptake Units
  Radioactivity in Liver: 6.87 Uptake Units
  Radioactivity in Lung: 10.7 Uptake Units
  Radioactivity in Medulla with Pons: 1.92 Uptake Units
  Radioactivity in Olfactory bulbs: 1.72 Uptake Units
  Radioactivity in Olfactory tubercles: 1.92 Uptake Units
  Radioactivity in Prefrontal cortex: 2.32 Uptake Units
  Radioactivity in Skeletal muscle: 1.07 Uptake Units
  Radioactivity in Skin: 0.51 Uptake Units
  Radioactivity in Sm. intestine content: 9.63 Uptake Units
  Radioactivity in Small intestine: 2.79 Uptake Units
  Radioactivity in Somatosensory cortex: 2.24 Uptake Units
  Radioactivity in Spleen: 4.46 Uptake Units
  Radioactivity in Stomach: 2.07 Uptake Units
  Radioactivity in Striata: 1.92 Uptake Units
  Radioactivity in Superior collicull: 2.01 Uptake Units
  Radioactivity in Testis: 0.66 Uptake Units
  Radioactivity in Thalamus: 2.21 Uptake Units
  Radioactivity in Urine: 22.0 Uptake Units
  Radioactivity in Visual cortex: 2.28 Uptake Units
  Radioactivity in Plasma: 0.17 Uptake Units
  Radioactivity in Whole blood: 0.19 Uptake Units
20 min
  Radioactivity in Cerebellum: 1.45* Uptake Units
  Radioactivity in Entorhinal cortex: 1.80 Uptake Units
  Radioactivity in Fat: 0.40* Uptake Units
  Radioactivity in Heart (ventricle): 1.10* Uptake Units
  Radioactivity in Hippocampus: 1.60 Uptake Units
  Radioactivity in Hypothalamus: 1.67 Uptake Units
  Radioactivity in Inferior collicull: 1.97 Uptake Units
  Radioactivity in Kidney: 3.19* Uptake Units
  Radioactivity in Large intestine: 1.27* Uptake Units
  Radioactivity in Lge. intestine content: 0.28* Uptake Units
  Radioactivity in Liver: 6.47* Uptake Units
  Radioactivity in Lung: 14.0* Uptake Units
  Radioactivity in Medulla with Pons: 1.68 Uptake Units
  Radioactivity in Olfactory bulbs: 1.46 Uptake Units
  Radioactivity in Olfactory tubercles: 1.73 Uptake Units
  Radioactivity in Prefrontal cortex: 1.94* Uptake Units
  Radioactivity in Skeletal muscle: 0.96* Uptake Units
  Radioactivity in Skin: 0.68* Uptake Units
  Radioactivity in Sm. intestine content: 6.08* Uptake Units
  Radioactivity in Small intestine: 2.16* Uptake Units
  Radioactivity in Somatosensory cortex: 2.03 Uptake Units
  Radioactivity in Spleen: 3.26* Uptake Units
  Radioactivity in Stomach: 0.67* Uptake Units
  Radioactivity in Striata: 1.65* Uptake Units
  Radioactivity in Superior collicull: 1.64 Uptake Units
  Radioactivity in Testis: 0.73* Uptake Units
  Radioactivity in Thalamus: 2.01 Uptake Units
  Radioactivity in Urine: 10.7* Uptake Units
  Radioactivity in Visual cortex: 2.07 Uptake Units
  Radioactivity in Plasma: 0.17 Uptake Units
  Radioactivity in Whole blood: 0.18 Uptake Units
30 min
  Radioactivity in Cerebellum: 0.55 Uptake Units
